According to US20210139467A1 (GLAXOSMITHKLINE INTELLECTUAL PROPERTY DEVELOPMENT LIMITED, priority 2017, published 2021):

Key:
IDO1 = IDO1 (Homo sapiens, UniProt P14902); assay: IDO1 HeLa RapidFire MS Assay; type: cell-based; parameters: stimulated with human interferon-γ (IFN-γ); details: HeLa cells stimulated with IFN-γ; kynurenine detected by mass spectrometry; 2 days; read-out: IDO1 HeLa pIC50 (converted)
Description: IDO1 HeLa RapidFire MS Assay
Compounds of the present invention were tested via high-throughput cellular assays utilizing detection of kynurenine via mass spectrometry and cytotoxicity as end-points. For the mass spectrometry and cytotoxicity assays, human epithelial HeLa cells (CCL-2; ATCC®, Manassas, Va.) were stimulated with human interferon-γ (IFN-γ) (Sigma-Aldrich Corporation, St. Louis, Mo.) to induce the expression of indoleamine 2, 3-dioxygenase (IDO1). Compounds with IDO1 inhibitory properties decreased the amount of kynurenine produced by the cells via the tryptophan catabolic pathway. Cellular toxicity due to the effect of compound treatment was measured using CellTiter-Glo® reagent (CTG) (Promega Corporation, Madison, Wis.), which is based on luminescent detection of ATP, an indicator of metabolically active cells. […]
Following incubation, the 384-well plates were removed from the incubator and allowed to equilibrate to room temperature for 30 minutes. […] After a twenty minute incubation at room temperature, luminescence was read on an EnVision® Multilabel Reader (PerkinElmer Inc., Waltham, Mass.). […]

PAN02 pancreatic cells = details: cited from earlier work
[1] = system: conversion of T cells into CD4+FoxP3+ Tregs; details: co-culture of DCs and naive CD4+CD25- T cells; cited from earlier work

Sequence of IDO1 (P14902 whole entry): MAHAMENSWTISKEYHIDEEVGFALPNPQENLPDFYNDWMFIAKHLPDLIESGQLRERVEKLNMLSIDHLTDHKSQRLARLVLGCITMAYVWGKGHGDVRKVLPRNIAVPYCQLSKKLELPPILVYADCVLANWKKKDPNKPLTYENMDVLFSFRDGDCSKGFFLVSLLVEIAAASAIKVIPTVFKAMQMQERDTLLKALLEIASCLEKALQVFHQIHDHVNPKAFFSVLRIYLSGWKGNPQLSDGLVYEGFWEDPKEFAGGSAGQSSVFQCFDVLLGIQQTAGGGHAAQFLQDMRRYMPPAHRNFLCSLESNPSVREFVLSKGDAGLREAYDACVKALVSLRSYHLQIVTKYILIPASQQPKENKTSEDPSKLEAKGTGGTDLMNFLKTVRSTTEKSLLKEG

Row | IC50 (IDO1) | Structure (SMILES) | inhibition of tumor growth (PAN02 pancreatic cells; PAN02 syngeneic model, immunocompetent mice, orally dosed) | effect on tumor growth (PAN02 pancreatic cells; same tumor implanted in immune-deficient mice) | conversion of T cells into CD4+FoxP3+ Tregs [1]
1 | 10 nM | CC(C)CN(c1ccc(C2(C(=O)NS(C)(=O)=O)CC2)nc1Nc1ccc(Cl)cn1)C1CCOCC1 [Example 16, 1-(6-((5-chloropyridin-2-yl)amino)-5-(isobutyl(tetrahydro-2H-pyran-4-yl)amino)pyridin-2-yl)-N-(methylsulfonyl)cyclopropane-1-carboxamide] | – | – | –
2 | – | NS(=O)(=O)NCCNc1nonc1C(=NO)Nc1ccc(F)c(Br)c1 [INCB204360, epacadostat] | significant dose-dependent inhibition of tumor growth | without effect | blocked the conversion
3 | 158 nM | CC(C)CN(c1ccc(C2(C(=O)O)CC2)nc1Nc1ccc(Cl)cn1)C1CCOCC1 [Example 15, 1-(6-((5-chloropyridin-2-yl)amino)-5-(isobutyl(tetrahydro-2H-pyran-4-yl)amino)pyridin-2-yl)cyclopropane-1-carboxylic acid] | – | – | –
